Test results published in US9593108B2, “Compounds and methods for antiviral treatment” (PTC Therapeutics, Inc., priority 2009, dated 2017).

Assays:
[1] = tested on: HCV replicon RNA (GenBank Accession No. AJ242654); experiment: HCV Replicon Assay (replicon RNA reduction and/or Fluc reporter signal); type: cell-based, Hepatitis C virus; conditions: Hepatitis C virus, 72 h, replicon-containing cells cultured with test compound for up to 3 days
In short: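 IC50 values mostly reflect the drop in replicon RNA, though Fluc reporter signal may also be used. Compound incubated with cells carrying the bicistronic replicon for as long as 3 days; interferon served as positive control.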

Structure (SMILES) | IC50 [1] | melting point
Cc1cnc2c(c1)c(C#N)c(-c1ccc(S(=O)(=O)N[C@@H](C)C(F)(F)F)cn1)n2-c1cc(F)ccc1F [Cpd 504, 6-[3-cyano-1-(2,5-difluorophenyl)-5-methyl-1H-pyrrolo[2,3-b]pyridin-2-yl]-N-[(2S)-1,1,1-trifluoropropan-2-yl]pyridine-3-sulfonamide] | < 500 nM | 232 to 234 °C
C[C@H](NS(=O)(=O)c1ccc(-c2c(C#N)c3cc(F)cnc3n2-c2cc(F)ccn2)nc1)C(F)(F)F [Cpd 461, 6-[3-cyano-5-fluoro-1-(4-fluoropyridin-2-yl)-1H-pyrrolo[2,3-b]pyridin-2-yl]-N-[(2S)-1,1,1-trifluoropropan-2-yl]pyridine-3-sulfonamide] | < 500 nM | 186 to 188 °C
CC1(NS(=O)(=O)c2ccc(-c3c(C#N)c4cc(C(F)(F)F)cnc4n3C3CCCCC3)cc2)CC1 [Cpd 421, 4-[3-cyano-1-cyclohexyl-5-(trifluoromethyl)-1H-pyrrolo[2,3-b]pyridin-2-yl]-N-(1-methylcyclopropyl)benzenesulfonamide] | < 500 nM | 173 to 175 °C
C[C@@H](NS(=O)(=O)c1ccc(-c2c(C#N)c3cc(C(F)(F)F)cnc3n2C2CCCCC2)cc1)C(F)(F)F [Cpd 423, 4-[3-cyano-1-cyclohexyl-5-(trifluoromethyl)-1H-pyrrolo[2,3-b]pyridin-2-yl]-N-[(2R)-1,1,1-trifluoropropan-2-yl]benzenesulfonamide] | < 500 nM | 185 to 187 °C
Cc1ccc2c(C#N)c(-c3ccc(S(=O)(=O)NC4CCC4)cn3)n(C3CCC3)c2n1 [Cpd 148, 6-(3-cyano-1-cyclobutyl-6-methyl-1H-pyrrolo[2,3-b]pyridin-2-yl)-N-cyclobutylpyridine-3-sulfonamide] | < 500 nM | 151 to 160 °C
CSc1cnc2c(c1)c(C(N)=O)c(-c1ccc(S(=O)(=O)NC(C)(C)C(F)(F)F)cc1)n2C1CCC1 [Cpd 391, 1-cyclobutyl-5-(methylsulfanyl)-2-{4-[(1,1,1-trifluoro-2-methylpropan-2-yl)sulfamoyl]phenyl}-1H-pyrrolo[2,3-b]pyridine-3-carboxamide] | < 500 nM | 204 to 205 °C
COc1cnc2c(c1)c(C#N)c(-c1ccc(S(=O)(=O)NC(CF)CF)cc1)n2C1CCC1 [Cpd 65, 4-(3-cyano-1-cyclobutyl-5-methoxy-1H-pyrrolo[2,3-b]pyridin-2-yl)-N-(1,3-difluoropropan-2-yl)benzenesulfonamide] | < 500 nM | 215 to 218 °C
Cc1cnc2c(C#N)c(-c3ccc(S(=O)(=O)N[C@@H](C)C(F)(F)F)cn3)n(C3CCC3)c2c1 [Cpd 206, 6-(3-cyano-1-cyclobutyl-6-methyl-1H-pyrrolo[3,2-b]pyridin-2-yl)-N-[(2S)-1,1,1-trifluoropropan-2-yl]pyridine-3-sulfonamide] | 500 to 2000 nM | 217 to 218 °C
CC(C)Oc1cnc2c(c1)c(C#N)c(-c1ccc(S(=O)(=O)N[C@@H](C)C(F)(F)F)cn1)n2C1CCC1 [Cpd 218, 6-[3-cyano-1-cyclobutyl-5-(propan-2-yloxy)-1H-pyrrolo[2,3-b]pyridin-2-yl]-N-[(2S)-1,1,1-trifluoropropan-2-yl]pyridine-3-sulfonamide] | < 500 nM | 168 to 169 °C
Cc1cnc2c(c1)c(C#N)c(-c1ccc(S(=O)(=O)N[C@@H](C)C(F)(F)F)cn1)n2-c1ccccn1 [Cpd 346, 6-[3-cyano-5-methyl-1-(pyridin-2-yl)-1H-pyrrolo[2,3-b]pyridin-2-yl]-N-[(2S)-1,1,1-trifluoropropan-2-yl]pyridine-3-sulfonamide] | < 500 nM | 165 to 167 °C
C[C@H](NS(=O)(=O)c1ccc(-c2c(C#N)c3cc(C(F)(F)F)cnc3n2-c2ccccc2)nc1)C(F)(F)F [Cpd 318, 6-[3-cyano-1-phenyl-5-(trifluoromethyl)-1H-pyrrolo[2,3-b]pyridin-2-yl]-N-[(2S)-1,1,1-trifluoropropan-2-yl]pyridine-3-sulfonamide] | < 500 nM | 186 to 188 °C
CC(C)(NS(=O)(=O)c1ccc(-c2c(C#N)c3cc(Cl)cnc3n2C2CCC2)nc1)C(F)(F)F [Cpd 56, 6-(5-chloro-3-cyano-1-cyclobutyl-1H-pyrrolo[2,3-b]pyridin-2-yl)-N-(1,1,1-trifluoro-2-methylpropan-2-yl)pyridine-3-sulfonamide] | < 500 nM | 221 to 222 °C
C[C@@H](NS(=O)(=O)c1ccc(-c2c(C#N)c3cc(N4CCCC4)cnc3n2C2CCC2)nc1)C(F)(F)F [Cpd 240, 6-[3-cyano-1-cyclobutyl-5-(pyrrolidin-1-yl)-1H-pyrrolo[2,3-b]pyridin-2-yl]-N-[(2R)-1,1,1-trifluoropropan-2-yl]pyridine-3-sulfonamide] | 500 to 2000 nM | 207 to 209 °C
C[C@H](NS(=O)(=O)c1ccc(-c2c(C#N)c3cc(Cl)cnc3n2-c2ccccn2)nc1)C(F)(F)F [Cpd 306, 6-[5-chloro-3-cyano-1-(pyridin-2-yl)-1H-pyrrolo[2,3-b]pyridin-2-yl]-N-[(2S)-1,1,1-trifluoropropan-2-yl]pyridine-3-sulfonamide] | < 500 nM | 179 to 181 °C
COc1cnc2c(c1)c(C#N)c(-c1cc(C)c(S(=O)(=O)N[C@@H](C)C(F)(F)F)cn1)n2C1CCC1 [Cpd 277, 6-(3-cyano-1-cyclobutyl-5-methoxy-1H-pyrrolo[2,3-b]pyridin-2-yl)-4-methyl-N-[(2S)-1,1,1-trifluoropropan-2-yl]pyridine-3-sulfonamide] | < 500 nM | 175 to 179 °C
Cc1cnc2c(C#N)c(-c3ncc(S(=O)(=O)N[C@@H](C)C(F)(F)F)cn3)n(C3CCCC3)c2c1 [Cpd 179, 2-(3-cyano-1-cyclopentyl-6-methyl-1H-pyrrolo[3,2-b]pyridin-2-yl)-N-[(2S)-1,1,1-trifluoropropan-2-yl]pyrimidine-5-sulfonamide] | < 500 nM | 262 to 264 °C
C[C@H](NS(=O)(=O)c1ccc(-c2c(C#N)c3cc(N4CCCC4)cnc3n2C2CCC2)nc1)C(F)(F)F [Cpd 239, 6-[3-cyano-1-cyclobutyl-5-(pyrrolidin-1-yl)-1H-pyrrolo[2,3-b]pyridin-2-yl]-N-[(2S)-1,1,1-trifluoropropan-2-yl]pyridine-3-sulfonamide] | 500 to 2000 nM | 207 to 209 °C
CC(C)(C)NS(=O)(=O)c1ccc(-c2c(C#N)c3cc(C(F)(F)F)cnc3n2-c2ncccn2)cc1 [Cpd 334, N-tert-butyl-4-[3-cyano-1-(pyrimidin-2-yl)-5-(trifluoromethyl)-1H-pyrrolo[2,3-b]pyridin-2-yl]benzenesulfonamide] | 2000 to 5000 nM | 228 to 230 °C
C[C@H](NS(=O)(=O)c1ccc(-c2c(C#N)c3cc(C#N)cnc3n2C2CCC2)nc1)C(F)(F)F [Cpd 108, 6-(3,5-dicyano-1-cyclobutyl-1H-pyrrolo[2,3-b]pyridin-2-yl)-N-[(2S)-1,1,1-trifluoropropan-2-yl]pyridine-3-sulfonamide] | < 500 nM | 203 to 204 °C
